Tests used:
[1] = target: T1, Sodium channel alpha subunits; brain (Types I, II, III) (Homo sapiens, UniProt P35498+Q99250+Q9NY46); assay: Inhibition of binding of Batrachotoxinin [3H]BTX-B to high affinity sites on voltage dependent sodium channels in a vesicular preparation from guinea pig cerebral cortex; format: tissue-based, Cavia porcellus
[2] = target: T1, Sodium channel alpha subunits; brain (Types I, II, III); details: Cavia porcellus; Cerebral cortex; at 10 µM
[3] = target: T1, Sodium channel alpha subunits; brain (Types I, II, III); details: Cavia porcellus; Cerebral cortex; at 100 µM
[4] = target: T1, Sodium channel alpha subunits; brain (Types I, II, III); details: Cavia porcellus; Cerebral cortex; at 10 µM; remark: listed apart in the source

T1 sequence (Q99250 whole entry, looked up, other chains not shown): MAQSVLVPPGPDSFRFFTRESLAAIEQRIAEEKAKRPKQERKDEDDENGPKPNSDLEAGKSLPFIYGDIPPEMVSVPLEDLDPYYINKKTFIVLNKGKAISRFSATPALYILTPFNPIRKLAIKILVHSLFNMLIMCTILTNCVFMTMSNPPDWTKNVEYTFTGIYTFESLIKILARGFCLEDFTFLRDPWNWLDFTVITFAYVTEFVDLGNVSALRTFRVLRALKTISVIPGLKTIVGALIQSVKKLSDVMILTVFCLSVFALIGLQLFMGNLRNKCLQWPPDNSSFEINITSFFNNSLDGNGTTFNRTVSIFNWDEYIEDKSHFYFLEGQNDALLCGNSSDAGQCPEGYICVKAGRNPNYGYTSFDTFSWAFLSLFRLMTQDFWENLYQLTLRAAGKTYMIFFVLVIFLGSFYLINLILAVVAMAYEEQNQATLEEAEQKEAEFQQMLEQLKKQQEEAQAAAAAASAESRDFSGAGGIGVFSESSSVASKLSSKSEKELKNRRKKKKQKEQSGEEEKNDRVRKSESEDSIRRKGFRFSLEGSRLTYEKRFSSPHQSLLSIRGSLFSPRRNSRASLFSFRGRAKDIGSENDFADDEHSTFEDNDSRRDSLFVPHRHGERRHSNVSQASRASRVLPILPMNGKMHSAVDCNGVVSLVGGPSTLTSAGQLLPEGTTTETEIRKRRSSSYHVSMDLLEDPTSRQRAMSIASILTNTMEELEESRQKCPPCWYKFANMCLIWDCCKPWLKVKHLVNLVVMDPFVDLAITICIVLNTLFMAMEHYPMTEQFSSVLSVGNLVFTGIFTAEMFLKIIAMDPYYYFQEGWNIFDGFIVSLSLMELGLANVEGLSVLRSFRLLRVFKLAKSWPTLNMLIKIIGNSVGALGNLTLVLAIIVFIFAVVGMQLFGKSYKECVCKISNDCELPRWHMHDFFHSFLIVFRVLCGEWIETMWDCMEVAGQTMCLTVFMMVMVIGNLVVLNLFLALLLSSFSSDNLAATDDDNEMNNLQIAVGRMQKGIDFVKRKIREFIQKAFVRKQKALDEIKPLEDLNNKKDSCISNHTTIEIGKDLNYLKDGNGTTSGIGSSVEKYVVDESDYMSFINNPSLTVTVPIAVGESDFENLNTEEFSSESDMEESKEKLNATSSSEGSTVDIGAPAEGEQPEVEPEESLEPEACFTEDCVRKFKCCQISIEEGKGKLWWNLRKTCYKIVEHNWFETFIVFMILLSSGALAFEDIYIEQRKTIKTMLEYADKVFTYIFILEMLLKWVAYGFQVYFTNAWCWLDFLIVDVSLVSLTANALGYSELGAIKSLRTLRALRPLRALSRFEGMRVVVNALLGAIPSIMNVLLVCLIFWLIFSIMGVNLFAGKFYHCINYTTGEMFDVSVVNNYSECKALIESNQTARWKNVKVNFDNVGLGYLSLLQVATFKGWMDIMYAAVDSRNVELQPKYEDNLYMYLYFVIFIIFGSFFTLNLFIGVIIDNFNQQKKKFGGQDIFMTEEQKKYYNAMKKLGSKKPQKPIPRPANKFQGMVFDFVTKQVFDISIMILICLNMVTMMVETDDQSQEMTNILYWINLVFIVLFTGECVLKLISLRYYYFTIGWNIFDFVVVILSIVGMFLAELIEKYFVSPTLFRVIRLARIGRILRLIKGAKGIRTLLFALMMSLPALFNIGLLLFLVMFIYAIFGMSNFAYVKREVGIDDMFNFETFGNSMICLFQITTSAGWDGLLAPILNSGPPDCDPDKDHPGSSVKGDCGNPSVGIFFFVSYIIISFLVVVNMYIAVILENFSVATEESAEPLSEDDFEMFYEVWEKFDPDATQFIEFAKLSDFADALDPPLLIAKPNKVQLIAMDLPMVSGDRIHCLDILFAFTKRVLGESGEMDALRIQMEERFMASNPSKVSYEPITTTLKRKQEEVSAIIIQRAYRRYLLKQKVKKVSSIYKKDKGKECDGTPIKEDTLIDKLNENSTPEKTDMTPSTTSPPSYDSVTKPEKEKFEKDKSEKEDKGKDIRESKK
T1 sequence (Q9NY46 whole entry, looked up, other chains not shown): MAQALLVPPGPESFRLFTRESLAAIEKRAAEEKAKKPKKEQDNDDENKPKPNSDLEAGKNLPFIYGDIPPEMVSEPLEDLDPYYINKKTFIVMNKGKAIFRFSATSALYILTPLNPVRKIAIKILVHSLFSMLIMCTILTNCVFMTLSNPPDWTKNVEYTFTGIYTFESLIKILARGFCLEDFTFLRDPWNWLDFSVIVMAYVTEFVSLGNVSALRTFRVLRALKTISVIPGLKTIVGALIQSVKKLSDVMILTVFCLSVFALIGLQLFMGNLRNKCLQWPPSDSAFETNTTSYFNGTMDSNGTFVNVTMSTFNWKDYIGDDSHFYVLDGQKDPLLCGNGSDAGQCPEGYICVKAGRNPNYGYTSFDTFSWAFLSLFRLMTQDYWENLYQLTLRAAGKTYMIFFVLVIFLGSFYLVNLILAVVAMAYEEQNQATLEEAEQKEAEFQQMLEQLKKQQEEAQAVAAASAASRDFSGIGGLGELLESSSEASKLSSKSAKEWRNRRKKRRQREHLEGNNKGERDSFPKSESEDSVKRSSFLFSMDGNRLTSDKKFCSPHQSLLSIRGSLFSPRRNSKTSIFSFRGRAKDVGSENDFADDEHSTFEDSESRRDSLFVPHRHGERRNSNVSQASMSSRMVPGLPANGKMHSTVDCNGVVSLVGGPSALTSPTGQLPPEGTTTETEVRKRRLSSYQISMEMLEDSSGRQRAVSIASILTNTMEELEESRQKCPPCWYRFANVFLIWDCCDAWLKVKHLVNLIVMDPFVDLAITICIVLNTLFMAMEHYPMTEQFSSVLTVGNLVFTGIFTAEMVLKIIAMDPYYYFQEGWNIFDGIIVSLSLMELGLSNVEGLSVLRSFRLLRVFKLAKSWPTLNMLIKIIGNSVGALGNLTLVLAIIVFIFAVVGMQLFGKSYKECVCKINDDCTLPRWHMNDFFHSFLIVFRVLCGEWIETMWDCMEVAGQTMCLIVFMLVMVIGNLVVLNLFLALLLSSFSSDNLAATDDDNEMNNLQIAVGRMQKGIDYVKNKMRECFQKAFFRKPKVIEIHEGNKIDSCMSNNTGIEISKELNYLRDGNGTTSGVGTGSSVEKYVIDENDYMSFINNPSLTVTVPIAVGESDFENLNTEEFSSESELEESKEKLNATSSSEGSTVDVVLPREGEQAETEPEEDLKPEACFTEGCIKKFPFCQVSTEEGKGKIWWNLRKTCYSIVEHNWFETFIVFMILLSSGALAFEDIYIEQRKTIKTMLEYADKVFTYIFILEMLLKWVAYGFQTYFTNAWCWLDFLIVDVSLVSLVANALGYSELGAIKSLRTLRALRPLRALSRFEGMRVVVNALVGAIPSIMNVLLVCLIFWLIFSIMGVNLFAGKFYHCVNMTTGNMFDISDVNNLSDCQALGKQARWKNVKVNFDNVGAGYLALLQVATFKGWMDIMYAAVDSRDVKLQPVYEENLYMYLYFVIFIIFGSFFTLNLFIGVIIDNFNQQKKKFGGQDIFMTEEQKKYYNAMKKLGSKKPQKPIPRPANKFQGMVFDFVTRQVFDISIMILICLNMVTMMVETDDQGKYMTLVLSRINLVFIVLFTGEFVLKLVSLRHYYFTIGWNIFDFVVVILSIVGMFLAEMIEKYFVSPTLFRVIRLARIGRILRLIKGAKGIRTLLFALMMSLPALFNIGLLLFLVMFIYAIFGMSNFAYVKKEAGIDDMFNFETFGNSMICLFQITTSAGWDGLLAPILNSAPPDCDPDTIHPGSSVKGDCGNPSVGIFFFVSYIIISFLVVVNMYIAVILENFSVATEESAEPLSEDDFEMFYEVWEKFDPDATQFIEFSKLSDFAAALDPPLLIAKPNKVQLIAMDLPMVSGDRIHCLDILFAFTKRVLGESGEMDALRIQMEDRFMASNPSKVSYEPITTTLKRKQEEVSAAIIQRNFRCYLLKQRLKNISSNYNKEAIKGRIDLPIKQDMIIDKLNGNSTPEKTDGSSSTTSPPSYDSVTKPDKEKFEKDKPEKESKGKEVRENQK

Structure (SMILES): CCN(CC)CCNC(=O)c1ccc(N=[N+]=[N-])cc1
- IC50 [1]: 65 µM
- inhibition [2]: 13.4%
- inhibition [3]: 56.1%

Structure (SMILES): COC(=O)[C@H]1[C@@H](OC(=O)c2ccccc2)C[C@@H]2CC[C@H]1N2C [COCAINE]
- IC50 [1]: 49 µM
- inhibition [2]: 19.5%
- inhibition [3]: 63.2%

Structure (SMILES): CC(C)CNCCOC(=O)c1ccc(N)cc1 [BUTETHAMINE]
- IC50 [1]: 55 µM
- inhibition [2]: 12.3%
- inhibition [3]: 63.2%

Structure (SMILES): CCCNC(C)C(=O)Nc1ccccc1C (stereo not drawn) [PRILOCAINE]
- IC50 [1]: 54 µM
- inhibition [2]: 14.2%
- inhibition [3]: 58.5%

Structure (SMILES): C=C[C@@]1(C)CC(=O)[C@]2(O)[C@@]3(C)[C@@H](O)CCC(C)(C)[C@@H]3[C@H](O)[C@H](OC(C)=O)[C@@]2(C)O1 [COLFORSIN]
- IC50 [1]: 60 µM
- inhibition [3]: 62.8%

Structure (SMILES): N=C1CCCCCCCCCCCN1C1CCCC1c1ccccc1 (stereo not drawn)
- IC50 [1]: 0.8 µM
- inhibition [3]: 100%

Structure (SMILES): CCCCOc1ccc(OCCCN2CCOCC2)cc1 [PRAMOXINE]
- IC50 [1]: 21.2 µM
- inhibition [2]: 29.7%
- inhibition [3]: 86.3%

Structure (SMILES): COc1cc2c(cc1OC)C1CC(=O)C(CC(C)C)CN1CC2 (stereo not drawn) [TETRABENAZINE]
- IC50 [1]: 85 µM
- inhibition [2]: 7%
- inhibition [3]: 55%

Structure (SMILES): CC1CCCC[N+]1(C)CCCOC(=O)c1ccccc1.[I-] (stereo not drawn)
- IC50 [1]: 360 µM
- inhibition [2]: 9.6%
- inhibition [3]: 31.4%

Structure (SMILES): c1ccc2c(c1)OCC(CN1CCCCC1)O2 (stereo not drawn) [PIPEROXAN]
- IC50 [1]: 61 µM
- inhibition [3]: 58.8%

Structure (SMILES): C(=C\c1ccccc1)/CN1CCN(C(c2ccccc2)c2ccccc2)CC1 [CINNARIZINE]
- inhibition [4]: 94.6%

Structure (SMILES): CCOC(=O)c1ccc(N)cc1 [BENZOCAINE]
- IC50 [1]: 910 µM
- inhibition [2]: 5.1%
- inhibition [3]: 0%

Structure (SMILES): COc1ccc(CN(CCN(C)C)c2nccs2)cc1 [ZOLAMINE]
- IC50 [1]: 19.2 µM
- inhibition [2]: 35.9%
- inhibition [3]: 82.4%

Structure (SMILES): O=c1n(CCCN2CCN(c3cccc(Cl)c3)CC2)nc2ccccn12
- inhibition [2]: 26.2%
- inhibition [3]: 79.6%

Structure (SMILES): CCN(CC)CCCCCCCCOC(=O)c1cc(C)c(C)c(C)c1
- inhibition [2]: 3.4%
- inhibition [3]: 21.6%
